According to US20110166132A1, “Gamma Secretase Modulators” (Amgen Inc., priority 2007, published 2011):

Molecular target: T1, gamma secretase (Homo sapiens, UniProt P49768)
T1 construct: HEK293 cells stably expressing full length Amyloid Precursor Protein (APP); endogenous in cells; host or cells: HEK 293 cells stably expressing full length APP
Experiment: GSM cell-based assay: Aβ 42 inhibition or reduction in HEK 293 cells over-expressing APP (sandwich ELISA)
Settings: approximate IC50; HEK293 cells stably expressing full length APP, 24 hours incubation, 10-point dose response starting at 10 μM
Source text: GSM cell-based assays were designed to measure the modulation of Aβ 42 from HEK 293 cells over-expressing APP.
Three simultaneous cell-based assays, namely Aβ 42 inhibition or reduction, Aβ 40 inhibition or reduction and a measurement of cell viability of the cells from which the Aβ 42/40 readout was obtained, together gave an interpretation of gamma secretase modulation (GSM). The assays measure Aβ 42 and Ab 40 from conditioned medium of test compound treated HEK 293 cells.
HEK293 cells stably expressing full length Amyloid Precursor Protein (APP) were plated at a density of 100K cells/well in 96 well plates (Costar). The cells were cultivated for 6 hours at 37° C. and 5% CO2 in DMEM supplemented with 10% FBS. The test compounds were then added to cells in 10-point dose response concentrations with the starting concentration being 10 μM. The compounds were diluted from stock solutions in DMSO and the final DMSO concentration of the test compounds on cells was 0.1%. After 24 hours of incubation with the test compounds the supernatant conditioned media was collected and the Aβ 42, Aβ 40 levels were determined using a sandwich ELISA. A cell viability test (CellTiter-Blue Cell Viability assay, Promega) on the cells from which the conditioned medium was harvested for Aβ 42 or Aβ 40 readouts gave an indication of cell survivability as a possible reason for false positive Aβ 42 or 40 reduction or inhibition readout. The IC50 of the compound (for either Aβ 42 or Aβ 40) was calculated from the percent of control or percent inhibition of Aβ 42 or Aβ 40 as a function of the concentration of the test compound.
The sandwich ELISA to detect Aβ 42 or Aβ 40 was performed in 96 well microtiter plates, which were pre-treated with goat anti-rabbit IgG (Pierce). The capture and detecting antibody pair that were used to detect Aβ 42 and Aβ 40 from cell supernatants were rabbit monoclonal Antibody 42 (RabMAb 42) and affinity purified polyclonal Antibody 40 pAB40 (Biosource) as capture antibodies and biotinylated 6E10 (Signet Labs Inc.) as detection antibody. The optimal concentration for RabMAb 42 was 1 μg/ml in Superblock/TBS (Pierce) that was supplemented with 0.05% Tween 20 (Sigma). The optimal concentration for the pAb40 antibody was 3 μg/ml in Superblock/TBS (Pierce) that was supplemented with 0.05% Tween 20 (Sigma). Optimal concentration for the detection antibody 6E10-biotinylated was 0.5 μg/ml in Superblock/TBS (Pierce) that had been supplemented with 2% normal goat serum and 2% normal mouse serum.
Cellular supernatants were incubated with the capture antibody for 16-20 hours at 4° C., followed by 3 wash steps in TBS-tween (0.05%). The detecting antibody incubation was for 3 hours at 4° C., again followed by the wash steps as described previously. The final readout of the ELISA is Time-Resolved Fluorescence (counts per minute) using Delfia reagents Streptavidin-Europium and Enhancement solutions (Perkin Elmer) and the EnVision Multilabel plate reader (Perkin Elmer).

Point of comparison: `COc1ncc(-c2cccc(C(C)C(=O)Nc3ccc(-c4ccnc(C)c4)cc3)c2)cn1` (centres unmarked) [Cpd 156, 2-(3-(2-methoxy-5-pyrimidinyl)phenyl)-N-(4-(2-methyl-4-pyridinyl)phenyl)-propanamide], IC50 246 nM. Against it:
- Cc1cc(-c2ccc(NC(=O)[C@H](CC(C)C)c3ccc(-c4ccc(N5CCOCC5)cc4)cc3)cc2)ccn1 [Cpd 131, (2R)-4-methyl-N-(4-(2-methyl-4-pyridinyl)-phenyl)-2-(4′-(4-morpholinyl)-4-biphenylyl)pentanamide] — within 1.5-fold, 191 nM
- Cc1cc(-c2ccc(NC(=O)C(CC(C)C)c3ccc(N4CCCCC4)cc3)cc2)ccn1 (centres unmarked) [Cpd 134, 4-methyl-N-(4-(2-methyl-4-pyridinyl)-phenyl)-2-(4-(1-piperidinyl)phenyl)-pentanamide] — within 1.5-fold, 242 nM
- Cc1cc(-c2ccc(NC(=O)C(C)c3cccc(-c4ccc(N5CCOCC5)nc4)c3)cc2)ccn1 (centres unmarked) [Cpd 135, N-(4-(2-methyl-4-pyridinyl)phenyl)-2-(3-(6-(4-morpholinyl)-3-pyridinyl)phenyl)-propanamide] — 1.6-fold lower, 154 nM
- Cc1cc(-c2ccc(NC(=O)C(C)c3cccc(N4CCN(C)CC4)c3)cc2)ccn1 (centres unmarked) [Cpd 138] — higher, > 10000 nM
- Cc1cc(-c2ccc(NC(=O)C(C)c3cccc(N4CCN(c5ccccn5)CC4)c3)cc2)ccn1 (centres unmarked) [Cpd 139, N-(4-(2-methyl-4-pyridinyl)phenyl)-2-(3-(4-(2-pyridinyl)-1-piperazinyl)phenyl)-propanamide] — within 1.5-fold, 166 nM
- Cc1cc(-c2ccc(NC(=O)C(C)c3cccc(C4CCN(CCO)CC4)c3)cc2)ccn1 (centres unmarked) [Cpd 140] — higher, > 10000 nM
- Cc1cc(-c2ccc(NC(=O)C(C)c3cccc(N4CCOCC4)n3)cc2)ccn1 (centres unmarked) [Cpd 141] — 35-fold higher, 8570 nM
- CSc1cccc(C(C)C(=O)Nc2ccc(-c3ccnc(C)c3)cc2)c1 (centres unmarked) [Cpd 142, N-(4-(2-methyl-4-pyridinyl)phenyl)-2-(3-(methylsulfanyl)phenyl)propanamide] — 4.3-fold higher, 1050 nM
- COc1cc(NC(=O)C(C)c2cccc(Br)c2)ccc1-c1ccnc(C)c1 (centres unmarked) [Cpd 143] — 2-fold higher, 485 nM
- Cc1cc(-c2ccc(NC(=O)C(CC(C)C)c3cccc(S(C)(=O)=O)c3)cc2)ccn1 (centres unmarked) [Cpd 145] — higher, > 10000 nM
- Cc1cc(-c2ccc(NC(=O)C(C)c3cccc(-c4ccc(N(C)C)cc4)c3)cc2)ccn1 (centres unmarked) [Cpd 147, 2-(4'-(dimethylamino)-3-biphenylyl)-N-(4-(2-methyl-4-pyridinyl)phenyl)propanamide] — 2.1-fold lower, 116 nM
- Cc1cc(-c2ccc(NC(=O)C(C)n3cnc(-c4ccccc4)c3)cc2)ccn1 (centres unmarked) [Cpd 151, N-(4-(2-methyl-4-pyridinyl)phenyl)-2-(4-phenyl-1H-imidazol-1-yl)propanamide] — 2.4-fold higher, 582 nM
- Cc1cc(-c2ccc(NC(=O)C(C)c3cccc(-c4cccc(C#N)c4)c3)cc2)ccn1 (centres unmarked) [Cpd 154, 2-(3′-cyano-3-biphenylyl)-N-(4-(2-methyl-4-pyridinyl)phenyl)propanamide] — within 1.5-fold, 216 nM
- Cc1cc(-c2ccc(NC(=O)C(C)c3cccc(-c4ccc(C(=O)N(C)C)cc4)c3)cc2)ccn1 (centres unmarked) [Cpd 157] — within 1.5-fold, 256 nM
- CC(=O)c1ccc(-c2cccc(C(C)C(=O)Nc3ccc(-c4ccnc(C)c4)cc3)c2)cc1 (centres unmarked) [Cpd 158, 2-(4′-acetyl-3-biphenylyl)-N-(4-(2-methyl-4-pyridinyl)phenyl)propanamide] — 1.8-fold lower, 139 nM
- Cc1cc(-c2ccc(NC(=O)C(C)c3cccc(Br)c3)c(C#N)c2)ccn1 (centres unmarked) [Cpd 161, 2-(3-bromophenyl)-N-(2-cyano-4-(2-methyl-4-pyridinyl)phenyl)propanamide] — higher, > 10000 nM
- Cc1cc(-c2ccc(NC(=O)C(CC3CC3)c3cccc(Br)c3)cc2)ccn1 (centres unmarked) [Cpd 163, 2-(3-bromophenyl)-3-cyclopropyl-N-(4-(2-methyl-4-pyridinyl)phenyl)propanamide] — within 1.5-fold, 184 nM
- Cc1cc(-c2ccc(NC(=O)C(C)c3cccc(Nc4ccccc4)c3)cc2)ccn1 (centres unmarked) [Cpd 165, N-(4-(2-methyl-4-pyridinyl)phenyl)-2-(3-(phenylamino)phenyl)propanamide] — 4.7-fold higher, 1160 nM
- COCCNc1cccc(C(C)C(=O)Nc2ccc(-c3ccnc(C)c3)cc2)c1 (centres unmarked) [Cpd 166] — 12-fold higher, 2840 nM
- Cc1cc(-c2ccc(NC(=O)[C@H]3CCCN3C(=O)OC(C)(C)C)cc2)ccn1 [Cpd 168] — higher, > 10000 nM
- Cc1cc(-c2ccc(NC(=O)C(C)c3ccc(NCC4CC4)cc3)cc2)ccn1 (centres unmarked) [Cpd 171, 2-(4-((cyclopropylmethyl)amino)phenyl)-N-(4-(2-methyl-4-pyridinyl)phenyl)-propanamide] — 10-fold higher, 2480 nM
- Cc1cc(-c2ccc(NC(=O)C(C)c3ccc(N(CC4CC4)CC4CC4)cc3)cc2)ccn1 (centres unmarked) [Cpd 172] — 2.2-fold higher, 540 nM
- Cc1cc(-c2ccc(NC(=O)C(CC(C)C)C3CCOCC3)cc2)ccn1 (centres unmarked) [Cpd 173] — higher, > 10000 nM
- Cc1cc(-c2ccc(NC(=O)C(C)c3cccc(-c4ccsc4)c3)cc2)ccn1 (centres unmarked) [Cpd 174, N-(4-(2-methyl-4-pyridinyl)phenyl)-2-(3-(3-thiophenyl)phenyl)propanamide] — 5.2-fold higher, 1270 nM
- Cc1cc(-c2ccc(NC(=O)[C@H](CC3CC3)c3cccc(Br)c3)cc2)ccn1 [Cpd 180, (2R)-2-(3-bromophenyl)-3-cyclopropyl-N-(4-(2-methyl-4-pyridinyl)phenyl)-propanamide] — within 1.5-fold, 367 nM
- COCCNc1cccc(C(CC(C)C)C(=O)Nc2ccc(-c3ccnc(C)c3)cc2)n1 (centres unmarked) [Cpd 182, 2-(6-((2-methoxyethyl)amino)-2-pyridinyl)-4-methyl-N-(4-(2-methyl-4-pyridinyl)-phenyl)pentanamide] — higher, > 10000 nM
- Cc1cc(-c2ccc(NC(=O)C(C)c3cccc(-c4csc(N5CCOCC5)n4)c3)cc2)ccn1 (centres unmarked) [Cpd 183] — 3.4-fold higher, 827 nM
- Cc1cc(-c2ccc(NC(=O)C3CC3(C)C)cc2)ccn1 (centres unmarked) [Cpd 184] — 4.4-fold higher, 1090 nM
- Cc1cc(-c2ccc(NC(=O)C3CC3(F)F)cc2)ccn1 (centres unmarked) [Cpd 185] — 3.7-fold higher, 910 nM
- Cc1cc(-c2ccc(NC(=O)C3CC34CCC4)cc2)ccn1 (centres unmarked) [Cpd 186] — higher, > 10000 nM
- Cc1cc(-c2ccc(NC(=O)C(C)c3ccc(NC4CCOCC4)cc3)cc2)ccn1 (centres unmarked) [Cpd 188, N-(4-(2-methyl-4-pyridinyl)phenyl)-2-(4-(tetrahydro-2H-pyran-4-ylamino)phenyl)-propanamide] — 11-fold higher, 2590 nM
- Cc1cc(-c2ccc(NC(=O)[C@H](CC(C)C)c3cc(F)cc(F)c3)cc2)ccn1 [Cpd 190] — within 1.5-fold, 349 nM
- COc1cc(NC(=O)C(C)c2cccc(-c3ccc(N4CCOCC4)cc3)c2)ccc1-c1ccnc(C)c1 (centres unmarked) [Cpd 191] — within 1.5-fold, 179 nM
- CCC(C(=O)Nc1ccc(-c2ccnc(C)c2)cc1)c1cccc(C)c1 (centres unmarked) [Cpd 200, 2-(3-methylphenyl)-N-(4-(2-methyl-4-pyridinyl)phenyl)butanamide] — 4.3-fold higher, 1050 nM
- Cc1cc(-c2ccc(NC(=O)C(CC(C)C)c3cccc(-c4ccc(N5CCN(C(=O)OC(C)(C)C)CC5)cc4)c3)cc2)ccn1 (centres unmarked) [Cpd 228, tert-butyl 4-(3′-(3-methyl-1-((4-(2-methyl-4-pyridinyl)phenyl)carbamoyl)butyl)-4-biphenylyl)-1-piperazinecarboxylate] — 1.8-fold lower, 135 nM
- Cc1cc(-c2ccc(NC(=O)c3cccc(C#N)c3)cc2)ccn1 [Cpd 275] — higher, > 10000 nM
- Cc1cc(-c2ccc(NC(=O)c3cccc(C(F)(F)F)c3)cc2)ccn1 [Cpd 279] — higher, > 10000 nM
- Cc1cc(-c2ccc(NC(=O)c3ccc(-c4ccccc4)cc3)cc2)ccn1 [Cpd 280] — higher, > 10000 nM
- COc1cc(C(=O)Nc2ccc(-c3ccnc(C)c3)cc2)ccc1C [Cpd 282] — higher, > 10000 nM
- Cc1cc(-c2ccc(NC(=O)c3cccc4c3oc3ccccc34)cc2)ccn1 [Cpd 286] — 27-fold higher, 6710 nM
- Cc1cc(-c2ccc(NC(=O)C3(c4ccccc4F)CC3)cc2)ccn1 [Cpd 288] — 7.2-fold higher, 1770 nM
- Cc1cc(-c2ccc(NC(=O)[C@@H](C)c3cc(C(F)(F)F)cc(C(F)(F)F)c3)cc2)ccn1 [Cpd 290, (2S)-2-(3,5-bis(trifluoromethyl)phenyl)-N-(4-(2-methyl-4-pyridinyl)phenyl)-propanamide] — higher, > 10000 nM
- Cc1cc(-c2ccc(NC(=O)c3cn4cc(Cl)ccc4n3)cc2)ccn1 [Cpd 300] — higher, > 10000 nM
- Cc1cc(-c2ccc(NC(=O)c3cc4ccccc4n3C)cc2)ccn1 [Cpd 305] — 23-fold higher, 5540 nM
- Cc1cc(-c2ccc(NC(=O)C3CC(=O)N(c4ccc(Cl)cc4)C3)cc2)ccn1 (centres unmarked) [Cpd 308] — higher, > 10000 nM
- Cc1cc(-c2ccc(NC(=O)C3(c4ccc(Cl)cc4)CCC3)cc2)ccn1 [Cpd 310] — 2.3-fold higher, 573 nM
